Assay results as given in patent US11215608B2, “Methods of determining cellular chemosensitivity” (Dana-Farber Cancer Institute, Inc., priority 2006, dated 2022).

Key:
[1] = tested on: SU-DHL4, SU-DHL6, SU-DHL8, SU-DHL 10; experiment: Lymphoma cell line sensitivity to agents; type: cell-based; details: four lymphoma cell lines compared
Description: Only cells that are dependent on BCL-2 for survival are predicted to respond to BCL-2 antagonists like ABT-737. […] To test this, cells were treated with vincristine.

leukemic mitochondria = experiment: Cytochrome c release from BCL-2 dependent leukemia mitochondria; type: biochemical, mouse
Description: (§1) Mitochondria were purified from liver and FL5.12cells as previously described (Letai et al., 2002). Mitochondria were purified from leukemia cells and 2B4 cells as previously described for FL5.12 cells. Mitochondria were incubated with treatments for 45 (mouse liver mitochondria) or 35 minutes (FL5.12, 2B4, and leukemic mitochondria). Release of cytochrome c was determined by a comparison of cytochrome c in the pellet and supernatant following treatment, quantitated by ELISA (R&D systems). When results of multiple experiments were averaged, results from solvent-only (DMSO) treatments values were subtracted from each, so that 0 release reflects that observed in solvent-only treatments.
Leukemia prone mice were generated as previously described (Letai, 2004). Mouse experimental protocols conform to the relevant regulatory standards and were approved by the Dana-Farber Cancer Institute Animal Care and Use Committee.
Previous results have described a mouse acute lymphocytic leukemia model in which c-myc is constitutively expressed and human BCL-2 is repressibly expressed. In this model, when BCL-2 transgene expression is eliminated by administration of doxycycline, the leukemic cells undergo apoptosis, resulting in rapid resolution of the leukemia (Letai, 2004). This provides an ideal in vivo model of a BCL-2 dependent cancer. It was hypothesized that dependence on BCL-2 was due to a similar mechanism to that of the IL-3 deprived FL5.12-BCL-2 cells—that is, a death signal was being initiated and carried by an activator BH3 molecule, but BCL-2 was binding it and preventing its interaction with multidomain proapoptotic proteins.
Mitochondria were isolated from leukemia cells and exposed to sensitizer BH3 peptides. Subsequently, cytochrome c release was measured. As an internal control, mitochondria were isolated from liver from the leukemic mice in parallel (FIG. 8A).

SU-DHL6 = experiment: BH3 profiling, cytochrome c release from lymphoma mitochondria; type: biochemical; details: SU-DHL 6
Source text: (§2) BH3 profiling allows for the prediction of response of cancer cells to anti-cancer therapeutics. For the purposes of this application, therapeutics can be divided into those that target anti-apoptotic BCL-2 proteins, and conventional agents. As a model test system, four lymphoma cell lines SU-DHL4, SU-DHL6, SU-DHL8, and SU-DHL 10 were employed. To perform BH3 profiling, the ability of a panel of sensitizer peptides to induce mitochondrial outer membrane permeabilization (MOMP) in mitochondria isolated from the lymphoma cells were tested. […] MOMP was measured by quantifying cytochrome c release by ELISA.
SU-DHL4 and SU-DHL6 a “primed” phenotype, based on the sensitivity to sensitizer BH3 peptides. […] SU-DHL-10 responded poorly to both sensitizer and activator peptides, indicating the loss of the effector arm.

BAX = BAX oligomerization / activation in mitochondria of IL-3 starved FL5.12-BCL-2 cells; type: biochemical, murine; details: peptides 30 uM, ABT-737 10 uM, 35 minutes
Description: Mitochondria were isolated from wt FL5.12 cells and FL5.12-BCL-2 cells in the presence of IL-3, and from FL5.12-BCL-2 cells following 24 hours of IL-3 deprivation. […] Mitochondrial pellets were subjected to chemical crosslinking as previously described (Letai et al., 2002).
This model predicts that BCL-2 acts upstream of BAX activation by intercepting activator BH3 molecules. To test this prediction, in FIG. 6E, immunoprecipitation was performed with an antibody that recognizes only the activated form of BAX which exposes an N-terminus epitope (Desagher ct al., 1999; Hsu and You le, 1997). wt or BCL-2 expressing FL5.12 cells were exposed to IL-3 withdrawal as indicated.

CLL mitochondria = experiment: Cytochrome c release from CLL mitochondria; type: biochemical, human; details: peptides or compounds 100 μM
Description: Alternatively, mitochondria were purified from freshly isolated CLL cells and cell lines by mechanical disruption followed by differential centrifugation, as previously described (Letai et al., 2002). Mitochondrial suspensions were made at 0.5 mg protein/ml, except for the case of ABT-737 and negative control enantiomer treatments, where 0.1 mg/ml was used. Release of cytochrome c was determined by a comparison of cytochrome c in the pellet and supernatant quantitated by ELISA (R&D systems).
CLL mitochondria were incubated with BH3 peptides as well as ABT-737 and negative control enantiomer (FIG. 14). […] This pattern is diagnostic of mitochondrial BCL-2 dependence. […] Since the BH3 peptides in the sensitizer panel lack the ability to directly activate BAX and BAK, these experiments also implicated the presence of an activator molecule constitutively sequestered by BCL-2 in CLL.

GST-BCL-2 = biological target: T1, GST-BCL-2 (Homo sapiens, UniProt P10415); experiment: BIM BH3 displacement by fluorescence polarization; type: binding; details: 25 nM fluorescein-linked BIM BH3, 0.5 uM GST-BCL-2
T1 construct: In each case, the C-terminus transmembrane domain was truncated to maintain solubility in aqueous solution; made in house; host or cells: bacteria
T1 sequence (P10415 1-218 limits assumed): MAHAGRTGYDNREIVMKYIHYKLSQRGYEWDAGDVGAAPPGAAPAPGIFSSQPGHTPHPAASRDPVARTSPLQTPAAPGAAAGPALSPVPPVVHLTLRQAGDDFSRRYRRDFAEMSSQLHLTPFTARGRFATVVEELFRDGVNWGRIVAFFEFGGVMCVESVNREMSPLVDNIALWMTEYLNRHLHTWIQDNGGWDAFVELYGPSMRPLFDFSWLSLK
Description: (§3) Binding assays were performed using fluorescence polarization as previously described (Letai et al., 2002). A minimum of three independent experiments were used to determine each dissociation constant.
(§4) As one test of this hypothesis, the ability of sensitizer peptides to displace tBID from antiapoptotic protein Bcl-w was examined utilizing a GST-pulldown assay. Proteins bound to glutathioneagarose beads were eluted with glutathione and analyzed by Western blot. In FIG. 3A, tBID is displaced from BC1-w by sensitizer BH3 peptides in a pattern that replicates the pattern in FIG. 1D. […] These experiments support the ability of sensitizer BH3 peptides to displace activators from the antiapoptotic binding cleft.

mouse liver mitochondria = experiment: Cytochrome c release from mouse liver mitochondria; type: biochemical; details: no tBID, also at 10-fold higher concentrations
Description: as §1
To test if selective binding corresponded to ability of individual BH3 domains to selectively antagonize antiapoptotic function, a purified mitochondrial system was constructed in which the critical apoptosis decision making molecular machinery was reconstituted. […] The multidomain proapoptotic function was provided by the BAK which resides in mouse liver Mitochondria; mouse liver mitochondria contain no detectable BAX protein (Letai et al., 2002). The dominant antiapoptotic function was provided by one of the five different recombinant antiapoptotic proteins used in the binding assays. BH3 peptides provided the sensitizer function.
Furthermore, when the panel of sensitizer BH3 peptides was tested in the presence of the antiapoptotic protein BCL-XL, there was still no cytochrome c release, formally ruling out the possibility that the BH3 peptides were somehow directly converting antiapoptotic proteins to a proapoptotic function (FIG. 2). To induce MOMP and cytochrome c release, there appears to be an absolute requirement for an activator function, here provided by the tBID protein.

[2] = tested on: FLAG-MCL-1-transfected 2B4 cells; experiment: BH3 peptides electroporated into dexamethasone-treated FLAG-MCL-1 2B4 cells; type: cell-based, murine; details: peptide transfected by electroporation
Source text: Percent killing was ascertained by Annexin-V staining. […] N=3 and the error bars represent the standard deviation.

GST-MCL-1 = biological target: T2, GST-MCL-1 (Homo sapiens, UniProt Q07820); experiment: BIM BH3 displacement by fluorescence polarization; type: binding; details: 25 nM fluorescein-linked BIM BH3, 0.1 uM GST-MCL-1
T2 construct: In each case, the C-terminus transmembrane domain was truncated to maintain solubility in aqueous solution; made in house; host or cells: bacteria (construct a gift of Tilman Oltersdorf)
T2 sequence (Q07820 1-327): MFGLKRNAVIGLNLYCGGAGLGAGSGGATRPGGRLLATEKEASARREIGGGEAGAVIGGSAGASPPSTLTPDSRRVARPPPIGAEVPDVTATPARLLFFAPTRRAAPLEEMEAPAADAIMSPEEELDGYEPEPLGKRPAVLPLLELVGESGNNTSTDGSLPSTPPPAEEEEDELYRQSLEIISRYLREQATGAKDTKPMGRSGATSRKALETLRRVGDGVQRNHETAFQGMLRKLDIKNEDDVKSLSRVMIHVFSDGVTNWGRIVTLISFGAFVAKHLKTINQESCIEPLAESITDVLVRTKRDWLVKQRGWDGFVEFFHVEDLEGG
Description: as §3, §4

SU-DHL8 = experiment: BH3 profiling, cytochrome c release from lymphoma mitochondria; type: biochemical; details: SU-DHL-8
Source text: as §2

Row | Compound | cell sensitivity to the agent [1] | cytochrome c release (leukemic mitochondria) | mitochondrial sensitivity to BH3 peptide (SU-DHL6) | BAX oligomerization (BAX) | cytochrome c release (CLL mitochondria) | displacement of BIM BH3 from BCL-2 (GST-BCL-2) | cytochrome c release by peptide alone (mouse liver mitochondria) | percent killing by Annexin-V staining [2] | displacement of BIM BH3 from MCL-1 (GST-MCL-1) | mitochondrial sensitivity to BH3 peptide (SU-DHL8)
1 | CC[C@]1(O)C[C@H]2CN(CCc3c([nH]c4ccccc34)[C@@](C(=O)OC)(c3cc4c(cc3OC)N(C=O)[C@H]3[C@@](O)(C(=O)OC)[C@H](OC(C)=O)[C@]5(CC)C=CCN6CC[C@]43[C@@H]65)C2)C1 [vincristine] | SU-DHL4 and SU-DHL6 were the most sensitive cell lines | – | – | – | – | – | – | – | – | –
2 | CSCC[C@H](NC(=O)[C@H](CCCNC(=N)N)NC(=O)[C@H](CCCNC(=N)N)NC(=O)[C@H](CC(C)C)NC(=O)[C@H](CCC(=O)O)NC(=O)[C@H](CCCNC(=N)N)NC(=O)CNC(=O)[C@H](Cc1ccc(O)cc1)NC(=O)[C@H](CCCNC(=N)N)NC(=O)[C@H](CCC(N)=O)NC(=O)[C@H](C)NC(=O)[C@H](C)NC(=O)[C@H](Cc1c[nH]c2ccccc12)NC(=O)[C@H](CC(C)C)NC(=O)CCCCCNC(=S)Nc1ccc2c(c1)C(=O)OC21c2ccc(O)cc2Oc2cc(O)ccc21)C(=O)N[C@@H](CO)C(=O)N[C@@H](CC(=O)O)C(=O)N[C@@H](CCC(=O)O)C(=O)N[C@@H](Cc1ccccc1)C(=O)N[C@@H](CCC(=O)O)C(=O)NCC(=O)N[C@@H](CO)C(=O)N[C@@H](Cc1ccccc1)C(=O)N[C@@H](CCCCN)C(=O)NCC(=O)N[C@@H](CC(C)C)C(=O)O [BAD] | – | capable of inducing near total cytochrome c release | weaker, but definite, response | results in BAX oligomerization | induce cytochrome c release | efficiently displaces BIM BH3 from BCL-2 | none of the sensitizer BH3 peptides by themselves can induce cytochrome c release significantly above background | – | – | –
3 | BH3 domain peptide of murine NOXA, AELPPEFAAQLRKIGDKVYC (SEQ ID NO: 6) [NOXA A] | – | – | weaker, but definite, response | – | do not | – | none of the sensitizer BH3 peptides by themselves can induce cytochrome c release significantly above background | significantly greater than that with BAD | efficiently displaces BIM from MCL-1 | –
4 | CC[C@H](C)[C@H](NC(=O)[C@H](CCC(=O)O)NC(=O)[C@H](CCCNC(=N)N)NC(=O)[C@H](C)NC(=O)[C@H](Cc1c[nH]c2ccccc12)NC(=O)[C@H](CCC(N)=O)NC(=O)[C@H](CCC(=O)O)NC(=O)CCCCCNC(=S)Nc1ccc2c(c1)C(=O)OC21c2ccc(O)cc2Oc2cc(O)ccc21)C(=O)NCC(=O)N[C@@H](C)C(=O)N[C@@H](CCC(N)=O)C(=O)N[C@@H](CC(C)C)C(=O)N[C@@H](CCCNC(=N)N)C(=O)N[C@@H](CCCNC(=N)N)C(=O)N[C@@H](CCSC)C(=O)N[C@@H](C)C(=O)N[C@@H](CC(=O)O)C(=O)N[C@@H](CC(=O)O)C(=O)N[C@@H](CC(C)C)C(=O)N[C@@H](CC(N)=O)C(=O)N[C@@H](C)C(=O)O [PUMA] | – | capable of inducing near total cytochrome c release | strong | – | induce cytochrome c release | – | none of the sensitizer BH3 peptides by themselves can induce cytochrome c release significantly above background | – | – | limited response
